Assay results: PMC5382548 (Scientific Reports, 2015)
Where “and” joins values, the source holds several entries; their conditions need not be identical. Identical values can stand only once.

Key:
[1] = tested on: F21T G4 (human telomeric sequence); experiment: FRET melting assay, F21T telomeric G4; type: binding; conditions: G4 0.2 μM, ligand 1 μM
Experimental: Two compounds 2d and 3e were selected and evaluated for their ability to stabilize the 32-mer sequence in the NHE of the human KRAS promoter (KRAS32R)[12], two G4 motifs in the 5′UTR of KRAS mRNA (UTR-1 and UTR-2)[24] and a 21-mer DNA G4 from the human telomeric sequence (F21T). The KRAS32R sequence has been described as forming two G4 structures which exist in equilibrium. One sequence folds into a G4 (Q1) with a Tm of ~55°C that is disrupted on increasing the temperature and then, the full-length 32-mer sequence folds into a new G4 (Q2, Tm of ~72°C)[13]. In our assay, the KRAS32R sequence (in the presence or absence of IQcs) folded in a single G4 structure (Tm ≈ 54°C), as shown by the single inflection for the first derivative of the FRET melting data (Sup. Inf.; Figure S4). This monophasic behaviour was also observed in the presence of TMPyP4[13].
Oligonucleotide sequences were purchased from Eurofins MWG Synthesis GmbH, Germany or STAB VIDA Genomics Lab, Caparica, Lisbon, Portugal. The labelled oligonucleotides used in the FRET assays had attached the donor fluorophore FAM (6-carboxyfluorescein) and the acceptor fluorophore TAMRA (6-carboxytetramethylrhodamine): KRAS21R: 5′-FAM-[…]-TAMRA-3′; KRAS32R: 5′-FAM-[…]-TAMRA-3′; UTR-1: 5′-FAM-GCGGCGGCGGAGG-TAMRA-3′; UTR-2: 5′-FAM-[…]-TAMRA-3; T-Loop:5′-FAM-[…]-TAMRA-3′; F21T: 5′-FAM-[…]-TAMRA-3′. Non-labelled oligonucleotides were used in FRET competition assays and in the spectroscopic studies: ds26: - d(5′-CAATCGGATCGAATT CGATCCGATTG-3′); KRAS21R: 5′-[…]-3′; HT21: 5′-[…]-3′. Each oligonucleotide was initially diluted to a storage solution at 100 μM in nuclease-free water (not DEPC-treated), purchased from Ambion Applied Biosystems UK.
The ability of indolo[3,2-c]quinolines to stabilize DNA sequences was investigated using a Fluorescence Resonance Energy Transfer (FRET) assay as reported elsewhere.

KRAS21R G4 = experiment: Spectrofluorimetric titration with KRAS21R G4; type: binding, human; conditions: for Apparent association constant Ka (KRAS21R): ligand 1 μM, K-cacodylate pH 7.4, 60 mM K+, 25°C; for Hill constant h (KRAS21R): one-site saturation binding Hill slope model
Experimental: To characterize the binding of IQc to DNA structures, spectrofluorimetric titration assays were performed with the non-substituted (2a), mono-alkyldiamine (2d) and di-alkyldiamine (3e) derivatives using un-labelled KRAS21R G4 and 26ds-DNA. […] Their fluorescence intensity was proportional to concentration up to 10 μM. […] The fluorescence titration data (Figure 4) was fitted to the Scatchard model[25] (Figure 4, insets). […] Scatchard plots of 2d and 3e (Figure 4b–c, insets) are all concave-down nonlinear curves, which may denote different positive cooperative binding sites in G4, with more than one equivalent and non-independent binding sites. […] Therefore, association constants for 2d and 3e were obtained from the one-site saturation binding Hill slope model (Figure 4b–c). These are apparent binding constants, i.e. they are macroscopic Ka which reflect the total binding.
Figure 4 Fluorescence data of (a) 2a, (b) 2d, and (c) 3e (1 μM) in K-cacodylate buffer (pH 7.4, containing 60 mM K^+) at 25°C, titrated with KRAS21R and HT21 G4s, and 26ds, fitted to the saturation binding equations and Scatchard model (insets).
Fluorescence data were collected with a λex of 290 nm and a λem around 475 nm for 2d and 3e, and a λex of 275 nm and a λem around 460 for 2a. Test compounds were prepared as 1 mM in HPLC-grade water (10% DMSO) stock solutions. The rest of the dilutions were performed using K-cacodylate buffer (pH = 7.4, containing 60 mM K^+). The G4 single-strand oligonucleotide sequences were initially diluted from the storage solution (100 μM) with K-cacodylate, to a stock solution at 25 μM. The titration data were obtained by adding aliquots of previously annealed G4 (heating to 95°C for 10 min, followed by slow cooling to RT) to a solution of the indolo[3,2-c]quinoline ligand (1 μM) in K-cacocylate buffer at 25°C (additional details in Supplementary Information).
Figure S7. Fluorescence titrations of 1 μM indolo[3,2-c]quinoline 2d (1µM) with KRAS21R G4 and 26ds DNA in K-cacodylate buffer pH 7.4, containing 60 mM K+ at 25 °C.
Concentration of DNA increase from the top to the bottom (grey lines) Excitation […]
Figure S8. Fluorescence titrations of 1 μM indolo[3,2-c]quinoline 3e (1µM) with KRAS21R […]
The titration data obtained were used to construct Scatchard plots with the concentration of bound and free ligand (Cb and Cf, respectively). […]
number of moles of ligand bound to 1 mol of G4 (r = Cb/CDNA) were calculated.
Saturation binding isotherms were represented as Scatchard plots, by plotting r/Cf versus r and evaluated according to the model of McGhee and von Hippel. Dissociation constants were determined by fitting the titration experimental data to one-site saturation binding equation or to one-site saturation binding to the Hill slope equation supplied with the GraphPad PRISM software (GraphPad, Version 5.00, San Diego, CA).
Association constants (Ka) were calculated from dissociation constants (Kd). Scatchard lines represented in the Scatchard plots were calculated from the data fitting to the binding equations (x = 0, y = Fmax/Kd; x = Fmax , y = 0; slope = -Ka). […]

Structure (SMILES) | ΔTm F21T [1] [°C] | Apparent association constant Ka (KRAS21R) (KRAS21R G4) | Hill constant h (KRAS21R) (KRAS21R G4)
CCN(CC)CCCNc1ccc2c(c1)c1[nH]c3ccccc3c1c[n+]2C [2d] | 17.7 | 4.4e+06 M⁻¹ | 2.0
Cn1cc2c3ccccc3nc-2c2cc(Br)ccc21 [2a, 2-bromo-5-methyl-indolo[3,2-c]quinoline] | 5.6 | 1.7 × 10^6 M^−1 and 1.7/-- × 10^6 M^−1 | –
CCN(CC)CCCNc1ccc2c(c1)[nH]c1c2c[n+](C)c2ccc(NCCCN(CC)CC)cc12.[Cl-] [3e] | 30.7 | 8.6e+06 M⁻¹ | 2.4
